US20240108629A1, “AZAQUINAZOLINE DERIVATIVES FOR USE IN TREATING OR PREVENTING DIROFILARIA INFECTION IN A MAMMAL” (Liverpool School of Tropical Medicine, priority 2021, published 2024)

Tests used:
[1] = tested on: D. immitis mf Wolbachia; test: In vitro D. immitis microfilariae assay (Wolbachia wsp copy number by qPCR); assay type: cell-based; conditions: six-day continuous exposure in vitro
[2] = tested on: D. immitis L4 Wolbachia; test: In vitro D. immitis L4 larvae assay (Wolbachia wsp copy number by qPCR); assay type: cell-based; conditions: for D. immitis L4 Efficacy (median % reduction Wolbachia): six-day continuous exposure in vitro
[3] = tested on: D. immitis L3-L4 larval Wolbachia in NSG mice; test: In vivo D. immitis larvae mouse assay (Example 3B); conditions: for n larvae depleted ≥50% (number/total) / n larvae depleted ≥50% (percentage of larvae): oral 200 mpk bid x 1; for D. immitis L4 Efficacy (median % reduction Wolbachia): oral 200 mpk bid x 1 (single day dosing), larvae retrieved 2 weeks after infection
[4] = tested on: D. immitis L3-L4 larval Wolbachia in NSG mice; test: In vivo D. immitis larvae mouse assay (Example 3A); conditions: for D. immitis L4 Efficacy (median % reduction Wolbachia): larvae retrieved 2 weeks after infection

CC1(C)CCN(c2nc(NCc3cccnc3C(F)(F)F)c3cccnc3n2)CC1 [Compound B, 2-(4,4-dimethylpiperidin-1-yl)-N-((2-(trifluoromethyl)pyridin-3-yl)methyl)pyrido[2,3-d]pyrimidin-4-amine]
D. immitis mf Efficacy (median % reduction Wolbachia) ([1]; 0.5 nM): 63.9% | D. immitis mf Efficacy (median % reduction Wolbachia) ([1]; 50 nM): 53.6% | D. immitis L4 Efficacy (median % reduction Wolbachia) ([2]; 1 nM): 45.4% | D. immitis L4 Efficacy (median % reduction Wolbachia) ([2]; 10 nM): 50.7% | D. immitis L4 Efficacy (median % reduction Wolbachia) ([2]; 50 nM): 57.4% | Wolbachia depletion in D. immitis L4 ([2]; doses between 50-10 nM, in vitro): > 50%

FC1(F)CCN(c2nc(NCc3ccccc3C(F)(F)F)c3cccnc3n2)CC1 [Compound C, 2-(4,4-difluoropiperidin-1-yl)-N-(2-(trifluoromethyl)benzyl)pyrido[2,3-d]pyrimidin-4-amine]
n larvae depleted ≥50% (number/total) [3]: 2/3 | n larvae depleted ≥50% (percentage of larvae) [3]: (67%) | D. immitis L4 Efficacy (median % reduction Wolbachia) [3]: 61.7%

C[C@H]1COCCN1c1nc(NCc2cccnc2C(F)(F)F)c2cccnc2n1 [Compound A, (S)-2-(3-methylmorpholino)-N-((2-(trifluoromethyl)pyridin-3-yl)methyl)pyrido[2,3-d]pyrimidin-4-amine]
n larvae depleted ≥50% (number/total) [3]: 4/5 | n larvae depleted ≥50% (percentage of larvae) [3]: (80%) | D. immitis L4 Efficacy (median % reduction Wolbachia) ([3]; 200 mg/kg): 52.1% | D. immitis mf Efficacy (median % reduction Wolbachia) ([1]; 50 nM): 64.1% | D. immitis mf Efficacy (median % reduction Wolbachia) ([1]; 200 nM): 88.8% | D. immitis mf Efficacy (median % reduction Wolbachia) ([1]; 5000 nM): 96.0% | n larvae depleted ≥80% (number/total) ([4]; oral 200 mpk bid x 2): 10/11 | n larvae depleted ≥80% (percentage of larvae) ([4]; oral 200 mpk bid x 2): (90.9%) | D. immitis L4 Efficacy (median % reduction Wolbachia) ([4]; oral 200 mpk bid x 2 (days 1-2), 200 mg/kg): 89.7%

FC(F)(F)OC1CCN(c2nc(NCc3cccnc3C(F)(F)F)c3cccnc3n2)CC1 [Compound D, 2-(4-(trifluoromethoxy)piperidin-1-yl)-N-((2-(trifluoromethyl)pyridin-3-yl)methyl)pyrido[2,3-d]pyrimidin-4-amine]
n larvae depleted ≥50% (number/total) [3]: 8/12 | n larvae depleted ≥50% (percentage of larvae) [3]: (67%) | D. immitis L4 Efficacy (median % reduction Wolbachia) [3]: 53.6%

C[C@H]1c2cccc(O)c2C(=O)C2=C(O)[C@]3(O)C(=O)C(C(N)=O)=C(O)[C@@H](N(C)C)[C@@H]3[C@@H](O)[C@@H]21 [Doxycycline, doxycycline, reference compound]
D. immitis mf Efficacy (median % reduction Wolbachia) ([1]; 50 nM): 10.0% | D. immitis mf Efficacy (median % reduction Wolbachia) ([1]; 5000 nM): 58.8% | n larvae depleted ≥80% (number/total) ([4]; oral 50 mpk qd x 7): 4/9 | n larvae depleted ≥80% (percentage of larvae) ([4]; oral 50 mpk qd x 7): (44.4%) | D. immitis L4 Efficacy (median % reduction Wolbachia) ([4]; oral 50 mpk qd x 7 (days 1-7 post-infection)): 69.6% | D. immitis L4 Efficacy (median % reduction Wolbachia) ([2]; 5000 nM): 65.9%
